Assay [1] concerns the target T1, Aurora kinase C (Homo sapiens) (UniProt Q9UQB9).
T1 sequence (whole entry): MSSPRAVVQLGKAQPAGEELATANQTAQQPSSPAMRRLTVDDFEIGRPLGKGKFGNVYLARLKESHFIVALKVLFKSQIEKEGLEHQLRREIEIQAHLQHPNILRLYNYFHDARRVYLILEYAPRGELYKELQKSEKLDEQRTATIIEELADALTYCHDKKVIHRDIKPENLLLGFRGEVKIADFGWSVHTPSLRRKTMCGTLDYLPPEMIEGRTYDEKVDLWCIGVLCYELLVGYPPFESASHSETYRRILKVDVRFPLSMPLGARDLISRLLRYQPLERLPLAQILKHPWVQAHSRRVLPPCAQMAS
Nature of the assay: Selectivity interaction (KinomeScan (DiscoverX)) EUB0000723a AURKC. The following applies: at 1 µM.

In another assay the target is Aurora kinase C (Homo sapiens, UniProt Q9UQB9). Nature of the assay: Selectivity interaction (NanoBRET assay (HEK293T cells)) EUB0000723a AURKC. For orientation: BRET reads energy transfer from a luciferase to a nearby fluorophore.
Assay [2] concerns the target Tyrosine-protein kinase ABL1 (Homo sapiens, UniProt P00519). Nature of the assay: Selectivity interaction (NanoBRET assay (HEK293T cells)) EUB0000723a ABL1.
The subject of assay [3] is Tyrosine-protein kinase ABL1 (Homo sapiens), P00519 [T315I]. Nature of the assay: Selectivity interaction (KinomeScan (DiscoverX)) EUB0000723a ABL1. To be noted: at 1 µM.
For assay [4], the target named is Mitogen-activated protein kinase 10 (Homo sapiens, UniProt P53779). As to the kind of experiment: Selectivity interaction (KinomeScan (DiscoverX)) EUB0000704a MAPK10. To be noted: at 1 µM.
For assay [5], the target named is Sodium-dependent dopamine transporter (Homo sapiens, UniProt Q01959). As to the kind of experiment: Selectivity interaction (GPCR panel (PDSP screen)) EUB0000704a SLC6A3.
Assay [6] concerns the target Serine/threonine-protein kinase PLK1 (Homo sapiens, UniProt P53350). Nature of the assay: Selectivity interaction (KinomeScan (DiscoverX)) EUB0000704a PLK1. The following applies: at 1 µM.
For assay [7], the target named is Serine/threonine-protein kinase WNK4 (Homo sapiens) (UniProt Q96J92). As to the kind of experiment: Selectivity interaction (KinomeScan (DiscoverX)) EUB0000704a WNK4. To be noted: at 1 µM.
For assay [8], the target named is Serine/threonine-protein kinase WNK3 (Homo sapiens) (UniProt Q9BYP7). As to the kind of experiment: Selectivity interaction (KinomeScan (DiscoverX)) EUB0000704a WNK3. The following applies: at 1 µM.
Assay [9] deals with T2, Gamma-aminobutyric acid receptor subunit alpha-1 (Homo sapiens, UniProt P14867).
T2 sequence (P14867 whole entry): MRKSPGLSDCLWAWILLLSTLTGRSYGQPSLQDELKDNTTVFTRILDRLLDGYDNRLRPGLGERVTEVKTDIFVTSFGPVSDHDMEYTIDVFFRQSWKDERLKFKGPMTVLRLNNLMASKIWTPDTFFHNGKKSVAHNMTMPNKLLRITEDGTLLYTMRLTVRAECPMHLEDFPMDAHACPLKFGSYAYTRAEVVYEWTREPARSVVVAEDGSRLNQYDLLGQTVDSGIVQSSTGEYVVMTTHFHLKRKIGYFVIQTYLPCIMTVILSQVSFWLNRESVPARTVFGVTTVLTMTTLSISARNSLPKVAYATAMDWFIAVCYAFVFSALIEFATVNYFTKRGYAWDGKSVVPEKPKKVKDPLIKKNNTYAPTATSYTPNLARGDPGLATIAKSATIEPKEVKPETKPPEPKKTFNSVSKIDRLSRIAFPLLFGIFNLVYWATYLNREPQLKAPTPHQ
As to the kind of experiment: Selectivity interaction (GPCR panel (PDSP screen)) EUB0000704a GABRA1.

Assay [10] addresses Protein kinase C alpha type (Homo sapiens) (UniProt P17252). As to the kind of experiment: Selectivity interaction (KinomeScan (DiscoverX)) EUB0000704a PRKCA. To be noted: at 1 µM.
Another assay addresses T3, Adenosine receptor A3 (Homo sapiens, UniProt P0DMS8).
T3 sequence (P0DMS8 whole entry): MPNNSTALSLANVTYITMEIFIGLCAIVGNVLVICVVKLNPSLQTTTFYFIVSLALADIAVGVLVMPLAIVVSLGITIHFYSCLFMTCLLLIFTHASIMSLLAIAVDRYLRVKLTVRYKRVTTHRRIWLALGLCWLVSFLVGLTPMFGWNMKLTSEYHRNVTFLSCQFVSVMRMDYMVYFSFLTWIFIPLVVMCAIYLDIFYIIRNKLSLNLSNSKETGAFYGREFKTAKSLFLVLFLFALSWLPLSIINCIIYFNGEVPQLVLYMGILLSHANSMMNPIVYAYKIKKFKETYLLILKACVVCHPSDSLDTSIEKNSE
As to the kind of experiment: Selectivity interaction (NIBR principial panel (12 GPCRs, 3 nuclear receptors, 3 transporters, and 7 other enzymes)) EUB0000253b ADORA3.

For the next assay, the target named is D(3) dopamine receptor (Homo sapiens, UniProt P35462). Nature of the assay: Selectivity interaction (NIBR principial panel (12 GPCRs, 3 nuclear receptors, 3 transporters, and 7 other enzymes)) EUB0000253b DRD3.
In the next assay the target is Histamine H3 receptor (Homo sapiens, UniProt Q9Y5N1). As to the kind of experiment: Selectivity interaction (NIBR principial panel (12 GPCRs, 3 nuclear receptors, 3 transporters, and 7 other enzymes)) EUB0000253b HRH3.
Assay [11] addresses T4, Bromodomain-containing protein 7 (Homo sapiens) (UniProt Q9NPI1).
T4 sequence (whole entry): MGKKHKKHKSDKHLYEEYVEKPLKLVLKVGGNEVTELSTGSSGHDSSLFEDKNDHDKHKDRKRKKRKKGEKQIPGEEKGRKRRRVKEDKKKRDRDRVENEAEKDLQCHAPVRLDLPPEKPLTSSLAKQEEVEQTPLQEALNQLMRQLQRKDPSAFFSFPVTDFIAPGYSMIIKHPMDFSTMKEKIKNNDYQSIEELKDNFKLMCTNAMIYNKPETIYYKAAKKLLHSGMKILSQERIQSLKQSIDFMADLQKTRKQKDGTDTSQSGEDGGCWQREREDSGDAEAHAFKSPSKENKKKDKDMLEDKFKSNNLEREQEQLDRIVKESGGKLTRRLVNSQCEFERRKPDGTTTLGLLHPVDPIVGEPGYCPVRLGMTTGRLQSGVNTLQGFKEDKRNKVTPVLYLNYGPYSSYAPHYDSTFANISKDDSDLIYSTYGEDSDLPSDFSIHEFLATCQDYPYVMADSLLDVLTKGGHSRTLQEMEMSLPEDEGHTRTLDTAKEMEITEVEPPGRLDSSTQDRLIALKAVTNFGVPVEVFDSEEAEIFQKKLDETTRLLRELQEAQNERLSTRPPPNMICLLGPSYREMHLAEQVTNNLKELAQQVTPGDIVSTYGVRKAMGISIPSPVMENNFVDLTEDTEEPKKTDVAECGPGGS
Nature of the assay: Selectivity interaction (Bromodomain panel (DSF assay)) EUB0000253b BRD7. Background: Differential scanning fluorimetry follows unfolding on heating by fluorescence.

The target in assay [12] is T5, Chromatin remodeling regulator CECR2 (Homo sapiens, UniProt Q9BXF3). As to the kind of experiment: Selectivity interaction (Bromodomain panel (DSF assay)) EUB0000253b CECR2.
Target sequence in this assay (Q9BXF3 whole entry, looked up): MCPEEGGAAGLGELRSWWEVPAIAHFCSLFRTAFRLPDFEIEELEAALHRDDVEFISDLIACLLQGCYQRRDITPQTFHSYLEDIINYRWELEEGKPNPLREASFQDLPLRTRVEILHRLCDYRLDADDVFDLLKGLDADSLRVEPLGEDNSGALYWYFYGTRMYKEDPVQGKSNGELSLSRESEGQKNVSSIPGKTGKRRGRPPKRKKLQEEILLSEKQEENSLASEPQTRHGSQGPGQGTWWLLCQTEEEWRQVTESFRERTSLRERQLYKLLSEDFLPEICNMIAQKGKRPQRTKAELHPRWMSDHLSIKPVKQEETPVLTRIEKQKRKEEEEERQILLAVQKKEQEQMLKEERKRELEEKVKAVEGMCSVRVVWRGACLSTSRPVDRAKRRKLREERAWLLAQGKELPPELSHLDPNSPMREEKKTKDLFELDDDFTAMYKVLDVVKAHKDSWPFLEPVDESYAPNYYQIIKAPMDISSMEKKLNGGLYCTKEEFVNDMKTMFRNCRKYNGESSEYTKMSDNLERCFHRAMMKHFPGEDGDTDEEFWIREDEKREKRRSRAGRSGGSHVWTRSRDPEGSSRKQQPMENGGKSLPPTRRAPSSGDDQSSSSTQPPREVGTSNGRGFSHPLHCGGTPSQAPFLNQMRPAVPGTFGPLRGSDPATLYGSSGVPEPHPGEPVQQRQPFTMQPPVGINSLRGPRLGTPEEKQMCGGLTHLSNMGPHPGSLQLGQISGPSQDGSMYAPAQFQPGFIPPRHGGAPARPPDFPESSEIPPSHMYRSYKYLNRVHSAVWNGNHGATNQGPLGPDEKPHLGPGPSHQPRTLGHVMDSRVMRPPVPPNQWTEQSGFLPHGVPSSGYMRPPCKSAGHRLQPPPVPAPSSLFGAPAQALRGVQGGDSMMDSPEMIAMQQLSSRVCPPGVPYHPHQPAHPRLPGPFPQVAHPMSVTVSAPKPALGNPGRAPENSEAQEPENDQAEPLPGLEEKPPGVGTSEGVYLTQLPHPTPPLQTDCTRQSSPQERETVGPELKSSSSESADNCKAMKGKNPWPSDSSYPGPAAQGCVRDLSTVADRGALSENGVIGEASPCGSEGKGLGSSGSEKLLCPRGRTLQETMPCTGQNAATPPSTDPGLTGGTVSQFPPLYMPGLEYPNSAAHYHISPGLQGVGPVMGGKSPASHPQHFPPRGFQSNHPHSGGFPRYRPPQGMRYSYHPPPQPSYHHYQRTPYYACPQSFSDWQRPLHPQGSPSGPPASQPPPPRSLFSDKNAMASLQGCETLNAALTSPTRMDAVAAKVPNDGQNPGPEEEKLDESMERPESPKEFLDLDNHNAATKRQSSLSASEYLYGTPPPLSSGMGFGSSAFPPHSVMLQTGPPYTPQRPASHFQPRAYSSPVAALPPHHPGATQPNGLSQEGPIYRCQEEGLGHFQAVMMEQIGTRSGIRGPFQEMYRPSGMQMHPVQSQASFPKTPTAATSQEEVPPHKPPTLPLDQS
The target in assay [13] is T5, Chromatin remodeling regulator CECR2. As to the kind of experiment: Selectivity interaction (BROMOscan™ panel (DiscoverX)) EUB0000253b CECR2.
Target sequence in this assay (Q9BXF3 whole entry): as the sequence (Q9BXF3 whole entry, looked up) above
The target is the same in assay [14]. As to the kind of experiment: Selectivity interaction (NanoBRET assay (HEK293T cells)) EUB0000253b CECR2.
Target sequence in this assay (Q9BXF3 whole entry): as the sequence (Q9BXF3 whole entry, looked up) above
The target of assay [15] is T6, Histone acetyltransferase KAT2A (Homo sapiens, UniProt Q92830). As to the kind of experiment: Selectivity interaction (BROMOscan™ panel (DiscoverX)) EUB0000253b KAT2A.
Assay [16] concerns the target T6, Histone acetyltransferase KAT2A. As to the kind of experiment: Selectivity interaction (NanoBRET assay (HEK293T cells)) EUB0000253b KAT2A.
For assay [17], the target named is T7, Histone acetyltransferase KAT2B (Homo sapiens, UniProt Q92831). Nature of the assay: Selectivity interaction (Bromodomain panel (DSF assay)) EUB0000253b KAT2B.
Target sequence in this assay (Q92831 whole entry, looked up): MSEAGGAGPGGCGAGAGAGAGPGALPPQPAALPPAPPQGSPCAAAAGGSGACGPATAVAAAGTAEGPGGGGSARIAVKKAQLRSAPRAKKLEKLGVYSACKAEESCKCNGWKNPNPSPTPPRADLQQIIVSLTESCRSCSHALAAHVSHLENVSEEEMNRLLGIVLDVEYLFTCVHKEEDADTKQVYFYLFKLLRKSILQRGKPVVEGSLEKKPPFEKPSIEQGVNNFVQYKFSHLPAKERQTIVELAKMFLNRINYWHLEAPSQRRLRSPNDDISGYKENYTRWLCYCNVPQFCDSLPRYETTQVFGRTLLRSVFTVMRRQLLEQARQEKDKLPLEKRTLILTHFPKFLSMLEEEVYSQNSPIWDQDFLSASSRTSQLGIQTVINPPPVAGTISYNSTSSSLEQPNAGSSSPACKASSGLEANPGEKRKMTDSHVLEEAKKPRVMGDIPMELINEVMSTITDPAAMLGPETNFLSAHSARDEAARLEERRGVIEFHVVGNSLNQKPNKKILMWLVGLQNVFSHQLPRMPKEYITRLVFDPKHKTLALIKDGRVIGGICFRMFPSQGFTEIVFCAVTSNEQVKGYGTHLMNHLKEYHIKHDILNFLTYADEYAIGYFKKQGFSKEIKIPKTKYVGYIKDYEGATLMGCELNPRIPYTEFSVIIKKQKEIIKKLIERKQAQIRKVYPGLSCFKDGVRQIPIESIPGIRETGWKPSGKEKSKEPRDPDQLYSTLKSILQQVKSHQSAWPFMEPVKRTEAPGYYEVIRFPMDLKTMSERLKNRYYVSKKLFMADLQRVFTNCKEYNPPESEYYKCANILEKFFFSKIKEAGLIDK
In assay [18] the target is T7, Histone acetyltransferase KAT2B. Nature of the assay: Selectivity interaction (BROMOscan™ panel (DiscoverX)) EUB0000253b KAT2B.
Target sequence in this assay (Q92831 whole entry): as the sequence (Q92831 whole entry, looked up) above
The target is the same in assay [19]. As to the kind of experiment: Selectivity interaction (NanoBRET assay (HEK293T cells)) EUB0000253b KAT2B.
Target sequence in this assay (Q92831 whole entry): as the sequence (Q92831 whole entry, looked up) above
Assay [20] addresses T8, Nucleosome-remodeling factor subunit BPTF (Homo sapiens, UniProt Q12830).
Assay [21] deals with T8, Nucleosome-remodeling factor subunit BPTF. The source holds these as a separate data set.

T6 sequence (Q92830 whole entry): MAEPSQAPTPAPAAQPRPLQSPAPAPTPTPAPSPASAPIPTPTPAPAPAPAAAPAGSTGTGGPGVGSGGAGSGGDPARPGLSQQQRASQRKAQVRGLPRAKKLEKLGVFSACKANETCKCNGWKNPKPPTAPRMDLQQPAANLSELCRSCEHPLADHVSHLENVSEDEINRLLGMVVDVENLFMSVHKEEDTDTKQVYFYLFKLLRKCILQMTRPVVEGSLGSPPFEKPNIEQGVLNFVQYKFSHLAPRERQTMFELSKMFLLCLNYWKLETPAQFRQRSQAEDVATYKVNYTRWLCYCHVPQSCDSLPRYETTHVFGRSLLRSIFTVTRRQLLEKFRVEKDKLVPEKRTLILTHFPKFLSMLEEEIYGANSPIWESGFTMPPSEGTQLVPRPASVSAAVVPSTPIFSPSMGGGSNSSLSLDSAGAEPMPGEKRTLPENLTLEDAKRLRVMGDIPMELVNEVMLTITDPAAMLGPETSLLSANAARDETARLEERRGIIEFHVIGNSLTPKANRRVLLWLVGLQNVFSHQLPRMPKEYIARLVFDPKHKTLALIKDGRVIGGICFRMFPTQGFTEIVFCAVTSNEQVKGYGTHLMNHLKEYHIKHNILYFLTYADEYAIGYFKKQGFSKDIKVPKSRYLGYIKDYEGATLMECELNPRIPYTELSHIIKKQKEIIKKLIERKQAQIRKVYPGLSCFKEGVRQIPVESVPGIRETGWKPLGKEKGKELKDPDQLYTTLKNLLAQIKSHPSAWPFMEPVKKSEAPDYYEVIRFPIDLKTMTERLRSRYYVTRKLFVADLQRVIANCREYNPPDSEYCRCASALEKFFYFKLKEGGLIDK
Serine/threonine-protein kinase PLK1, sequence (P53350 whole entry): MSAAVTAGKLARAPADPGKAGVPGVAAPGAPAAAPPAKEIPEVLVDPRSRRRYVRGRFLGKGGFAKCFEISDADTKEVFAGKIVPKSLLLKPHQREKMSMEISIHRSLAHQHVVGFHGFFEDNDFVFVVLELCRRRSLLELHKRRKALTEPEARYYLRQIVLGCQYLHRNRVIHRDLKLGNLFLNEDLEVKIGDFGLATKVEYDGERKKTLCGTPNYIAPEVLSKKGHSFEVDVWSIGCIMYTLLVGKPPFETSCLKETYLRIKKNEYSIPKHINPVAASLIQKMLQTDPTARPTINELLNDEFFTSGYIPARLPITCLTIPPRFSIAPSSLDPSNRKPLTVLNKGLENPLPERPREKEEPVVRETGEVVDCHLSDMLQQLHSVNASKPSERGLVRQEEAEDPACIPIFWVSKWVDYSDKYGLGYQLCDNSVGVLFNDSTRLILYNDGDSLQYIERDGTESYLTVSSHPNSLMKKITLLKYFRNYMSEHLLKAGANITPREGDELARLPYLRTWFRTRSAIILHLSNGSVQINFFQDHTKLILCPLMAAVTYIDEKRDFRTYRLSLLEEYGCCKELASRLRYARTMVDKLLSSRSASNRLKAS
Histamine H3 receptor, sequence (Q9Y5N1 whole entry): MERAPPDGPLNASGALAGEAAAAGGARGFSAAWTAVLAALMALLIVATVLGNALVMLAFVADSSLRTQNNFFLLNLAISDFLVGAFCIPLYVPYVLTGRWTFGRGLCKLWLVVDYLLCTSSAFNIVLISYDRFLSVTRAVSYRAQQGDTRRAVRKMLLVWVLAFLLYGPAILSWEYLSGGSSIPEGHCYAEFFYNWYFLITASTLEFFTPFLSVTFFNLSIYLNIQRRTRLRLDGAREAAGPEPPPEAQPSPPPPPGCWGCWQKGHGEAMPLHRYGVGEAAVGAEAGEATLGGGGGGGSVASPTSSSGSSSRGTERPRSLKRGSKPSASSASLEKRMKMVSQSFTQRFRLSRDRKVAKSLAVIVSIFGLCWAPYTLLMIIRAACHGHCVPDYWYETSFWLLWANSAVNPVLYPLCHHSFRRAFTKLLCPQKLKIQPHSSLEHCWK

As to `O=C(NCCCN1CCOC1=O)c1cnc(NCc2cc(Br)ccc2Br)nc1NC1CCCC1`, the % of control in assay [1] and in [3] was 100% throughout. Further, the IC50 (against Aurora kinase C; in assay [2]) was above 10 µM in each case.
Consider `Cc1ccc(-c2cnc([C@@]3(O)CC[C@H](C(=O)O)C(C)(C)C3)s2)cc1Nc1cccc(C(F)(F)F)n1` [MRL-SYKi-NC], for which the % of control in assay [4] is 38%; in assay [6] it was 20%; in assay [7] it was 32%; in [8] it was 0%; in assay [10] it was 33%. Further, the Ki in assay [5] was above 10 µM; in assay [9] it was 774 nM.
`Cc1c(Nc2ccc(S(=O)(=O)N3CCN(C)CC3)cc2F)nc2ccc(-c3cnn(C4CC4)c3)cn2c1=O`: the IC50 on Adenosine receptor A3 was 4.9 µM; against D(3) dopamine receptor, 3.5 µM; at Histamine H3 receptor it was 4 µM; in [14], above 10 µM; in assay [16] it was above 10 µM; in assay [19] it was above 10 µM. Besides, the half-inhibitory concentration (IC50) in [20] is 30 nM. Further, the dTm in assay [11] came out at 1.95 K; in [12], 2.48 K; in assay [17], 1.53 K; in [21] it was 6.16 K. Further, the Kd in [13] came out at 66 nM; in [15] it was 62 nM; in assay [18] it was 74 nM.

One may read the IC50 as the midpoint of a concentration-inhibition curve. Read a high IC50 as weaker potency. The Ki is a measure of affinity in units of concentration, obtained from inhibition or displacement. As a reminder, the Kd is the equilibrium constant for the complex coming apart. Low readings indicate tighter binding, high ones weaker binding.

These data come from ChEMBL document CHEMBL5212743, “Selectivity Literature for EUbOPEN Chemogenomics Library wave 3” (2023).
